Reference: ChEMBL document CHEMBL3044847, “Evaluation of systemic acquired resistance inducers for control of Phytophthora capsici on squash” (Crop Prot, 2009)
The source made the active and inactive calls. The calls are words filed in the database; no cut-off is given here.

Legend:
Phytophthora capsici [1] = assay: Insecticidal activity against Phytophthora capsici in Cucurbita pepo assessed as effect on host weight and height under greenhouse condition at 25 to 50 ug/ml; format: functional, organism-based
Cucurbita pepo [2] = assay: Toxicity in Cucurbita pepo (pumpkin) assessed as effect on host weight and height under greenhouse condition at 25 to 50 ug/ml; format: organism-based; settings: in vivo
Phytophthora capsici [3] = assay: Insecticidal activity against Phytophthora capsici assessed as inhibition of zoospore germination at 500 to 1000 ug/ml after 4 days with 16 hr photoperiod; format: functional, organism-based
Phytophthora capsici [4] = assay: Insecticidal activity against 10^4 spores/ml of Phytophthora capsici in Cucurbita pepo assessed as reduction of disease severity under greenhouse condition at 25 to 50 ug/ml applied as foliar spray after 1 week; format: functional, organism-based
Phytophthora capsici [5] = assay: Insecticidal activity against Phytophthora capsici in Cucurbita pepo assessed as reduction of disease severity under greenhouse condition at 25 to 50 ug/ml after 1 week; format: functional, organism-based
Phytophthora capsici [6] = assay: Insecticidal activity against 10^3 spores/ml of Phytophthora capsici in Cucurbita pepo assessed as reduction of disease severity under greenhouse condition at 25 to 50 ug/ml applied as foliar spray after 1 week; format: functional, organism-based
Cucurbita pepo [7] = assay: Phytotoxicity in Cucurbita pepo (pumpkin) assessed as effect on host weight and height under greenhouse condition at 50 ug/ml; format: organism-based; settings: in vivo
Phytophthora capsici [8] = assay: Insecticidal activity against Phytophthora capsici assessed as inhibition of mycelial growth by measuring perpendicular colony diameter at 25 to 2000 ug/ml after 8 days; format: functional, organism-based
Phytophthora capsici [9] = assay: Insecticidal activity against Phytophthora capsici assessed as inhibition of sporangium production after 4 days; format: functional, organism-based
Phytophthora capsici [10] = assay: Insecticidal activity against Phytophthora capsici assessed as inhibition of sporangium production at 500 to 1000 ug/ml after 4 days; format: functional, organism-based
Phytophthora capsici [11] = assay: Insecticidal activity against Phytophthora capsici assessed as inhibition of zoospore germination at 25 to 1000 ug/ml after 4 days with 16 hr photoperiod; format: functional, organism-based
Phytophthora capsici [12] = assay: Insecticidal activity against Phytophthora capsici assessed as inhibition of sporangium production at 25 to 1000 ug/ml after 4 days; format: functional, organism-based

| Compound | Activity (Phytophthora capsici [1]) | Activity (Cucurbita pepo [2]) | inhibition (Phytophthora capsici [3]) | Activity (Phytophthora capsici [4]) | Activity (Phytophthora capsici [5]) | Activity (Phytophthora capsici [6]) | Activity (Cucurbita pepo [7]) | inhibition (Phytophthora capsici [8]) | inhibition (Phytophthora capsici [9]) | inhibition (Phytophthora capsici [10]) | inhibition (Phytophthora capsici [11]) | inhibition (Phytophthora capsici [12]) |
| --- | --- | --- | --- | --- | --- | --- | --- | --- | --- | --- | --- | --- |
| O=C(O)c1ccccc1O [SALICYLIC ACID] | Active | Non-toxic | Active |  |  |  |  |  |  |  |  |  |
| O=C(O)c1cc(Cl)nc(Cl)c1 [2,6-DICHLOROISONICOTINIC ACID] | Active |  | Active | Active | Active | Active | Toxic | Active | Dose-dependent effect |  |  |  |
| CSC(=O)c1cccc2nnsc12 [ACIBENZOLAR-S-METHYL] | Active |  |  | Active | Active | Active | Toxic | inactive |  | Active | inactive |  |
| CC(N)CC(=O)O (racemic) | Active | Non-toxic |  |  | Active | Active | Non-toxic | inactive |  |  | inactive | inactive |
